Measurements published in patent US4247712A, “Preservation of aqueous systems with 2-chloro-3-oxobutyramide derivatives” (Givaudan Corporation, priority 1979, dated 1981).
Values after ≈ are worked out from the molar mass of the structure shown.

How the values were obtained:
Assay type in all cases: cell-based
[1] = system: broad spectrum of microorganisms including gram positive bacteria, gram negative bacteria and molds; assay: Antimicrobial activity, general statement in the text
Pseudomonas aeruginosa [2] = assay: Utility as a cosmetic preservative (cosmetic lotion); settings: weekly reinoculation
Procedure: (§1) The 2-Chloro-3-oxobutyramide derivatives are effective cosmetic preservatives. Two-fold serial dilutions of 6% solutions of the 2-haloacetoacetic acid derivatives in dimethylformamide were added to a cosmetic lotion of the following formulation: |Stearic acid 1.4 g |Arlacel 60 (sorbitan |monostearate) 0.7 g |Tween 20 Polyoxethylene |(20) sorbitan |monostearate 1.6 g |Distilled water 94.0 g The lotions were inoculated with both Pseudomonas aeruginosa and Aspergillus niger and incubated at 28° C. At weekly intervals, the lotions were examined for microorganisms by conventional streak-plate methods or by macroscopic observation. The lotions were then reinoculated with the test organisms and reincubated.

Aspergillus niger [3] = assay: as above; settings: weekly reinoculation
Procedure: as §1

Staphylococcus aureus = assay: General antimicrobial activity, 5-fold serial dilution test in agar (MIC); settings: 37° C., 48 hours, growth only at lower concentration of range, read-out: minimum inhibitory concentration (MIC), B1
Procedure: (§2) General antibacterial and antifungal activity was evaluated by a 5-fold serial dilution test in agar. In this test, compounds were prepared as 6% solutions in dimethylformamide or ethanol. The 6% solution was then 5-fold serially diluted in test tubes to give the desired concentrations when mixed with agar and poured into sterile Petri dishes. Tryptone glucose extract agar was used for the bacterial testing; mildew glucose agar for the fungal testing. The bacterial plates were spot inoculated with 24-hour nutrient broth cultures and incubated at 37° C. for 48 hours. The fungal plates were spot inoculated with spore suspensions and incubated at 28° C. for seven days. At the end of the incubation periods, all plates were examined for growth. The minimum inhibitory concentration (MIC) for each organism is expressed in Table I. In the ranges presented, growth is observed only at the lower concentration.
(§3) The activity is presented in Tabular Form (Table I) using the following key.

Proteus vulgaris = assay: as above; settings: 37° C., 48 hours, growth only at lower concentration of range, read-out: minimum inhibitory concentration (MIC), B4
Procedure: as §2, §3

Penicillium piscarium = assay: as above; settings: 168 h, 28° C., seven days, growth only at lower concentration of range, read-out: minimum inhibitory concentration (MIC), F3
Procedure: as §2, §3

Bacillus subtilis = assay: as above; settings: 37° C., 48 hours, growth only at lower concentration of range, read-out: minimum inhibitory concentration (MIC), B5
Procedure: as §2, §3

Pseudomonas aeruginosa [4] = assay: as above; settings: 37° C., 48 hours, growth only at lower concentration of range, read-out: minimum inhibitory concentration (MIC), B3
Procedure: as §2, §3

Escherichia coli = assay: as above; settings: 37° C., 48 hours, growth only at lower concentration of range, read-out: minimum inhibitory concentration (MIC), B2
Procedure: as §2, §3

Aspergillus oryzae = assay: as above; settings: 168 h, 28° C., seven days, growth only at lower concentration of range, read-out: minimum inhibitory concentration (MIC), F2
Procedure: as §2, §3

Aspergillus niger [5] = assay: as above; settings: 168 h, 28° C., seven days, growth only at lower concentration of range, read-out: minimum inhibitory concentration (MIC), F1
Procedure: as §2, §3

Aureobasidium pullulans = assay: as above; settings: 168 h, 28° C., seven days, growth only at lower concentration of range, read-out: minimum inhibitory concentration (MIC), F4
Procedure: as §2, §3

Pseudomonas aeruginosa [6] = assay: Utility in water and oil emulsions (3.3% cutting oil emulsions); settings: 28° C., weekly reinoculation, read-out: Minimum Inhibitory Concentration Range
Procedure: The utility of the 2-chloro-3-oxobutyramide derivatives in water and oil emulsions is illustrated below using a commercially available cutting oil. In running these tests, two-fold serial dilutions of 6% solutions of the compound in dimethylformamide was added to 3.3% cutting oil emulsions. The emulsions were prepared by diluting with water a commercially available cutting oil concentrate. The emulsions were inoculated with a culture of Pseudomonas aeruginosa and incubated at 28° C. on a rotary shaker. At weekly intervals, the emulsions were examined for bacteria by conventional streak-plate methods. The emulsions were then reinoculated with Pseudomonas aeruginosa and reincubated. […] indicate the activity range for that compound.

MIC (Staphylococcus aureus): 384 to 1920 µg/mL (≈ 2350 to 11700 µM)
MIC (Proteus vulgaris): 76.8 to 384 µg/mL (≈ 469 to 2350 µM)
MIC (Penicillium piscarium): 384 to 1920 µg/mL (≈ 2350 to 11700 µM)
MIC (Bacillus subtilis): 384 to 1920 µg/mL (≈ 2350 to 11700 µM)
MIC (Pseudomonas aeruginosa [4]): 384 to 1920 µg/mL (≈ 2350 to 11700 µM)
MIC (Escherichia coli): 76.8 to 384 µg/mL (≈ 469 to 2350 µM)
MIC (Aspergillus oryzae): 384 to 1920 µg/mL (≈ 2350 to 11700 µM)
MIC (Aspergillus niger [5]): 384 to 1920 µg/mL (≈ 2350 to 11700 µM)
MIC (Aureobasidium pullulans): 76.8 to 384 µg/mL (≈ 469 to 2350 µM)
MIC (Pseudomonas aeruginosa [6]; Week 1, 3.3% cutting oil emulsion): 125 to 500 µg/mL (≈ 764 to 3060 µM)
MIC (Pseudomonas aeruginosa [6]; Week 2, 3.3% cutting oil emulsion): 250 to 500 µg/mL (≈ 1530 to 3060 µM)
MIC (Pseudomonas aeruginosa [6]; Week 3, 3.3% cutting oil emulsion): 250 to 500 µg/mL (≈ 1530 to 3060 µM)
MIC (Pseudomonas aeruginosa [6]; Week 4, 3.3% cutting oil emulsion): 250 to 500 µg/mL (≈ 1530 to 3060 µM)
Compound: CC(=O)C(Cl)C(=O)N(C)C (stereo not shown) [R1=CH3, R2=CH3, 2-chloro-N,N-dimethyl-3-oxobutyramide]
antimicrobial activity (in words) [1]: high level of activity
minimum inhibitory concentration effective in preventing microbial growth (Pseudomonas aeruginosa [2]; Week 1, 28° C.): 2 (500-1000 mcg/gm)
minimum inhibitory concentration effective in preventing microbial growth (Pseudomonas aeruginosa [2]; Week 2, 28° C.): 2 (500-1000 mcg/gm)
minimum inhibitory concentration effective in preventing microbial growth (Pseudomonas aeruginosa [2]; Week 3, 28° C.): 2 (500-1000 mcg/gm)
minimum inhibitory concentration effective in preventing microbial growth (Pseudomonas aeruginosa [2]; Week 4, 28° C.): 2 (500-1000 mcg/gm)
minimum inhibitory concentration effective in preventing microbial growth (Aspergillus niger [3]; Week 1, 28° C.): 1 (1000-2000 mcg/gm)
minimum inhibitory concentration effective in preventing microbial growth (Aspergillus niger [3]; Week 2, 28° C.): 1 (1000-2000 mcg/gm)
minimum inhibitory concentration effective in preventing microbial growth (Aspergillus niger [3]; Week 3, 28° C.): 1 (1000-2000 mcg/gm)
minimum inhibitory concentration effective in preventing microbial growth (Aspergillus niger [3]; Week 4, 28° C.): 1 (1000-2000 mcg/gm)
